The text below walks through data of patent US20230333087A1, “METHODS FOR MONITORING PATIENT RESPONSE TO TREATMENT OF RETINAL OXIDATIVE DISEASES” (BioJiva LLC, priority 2022, published 2023).

The structures appear in SMILES notation.

The assay has as its system neural retina mRNA levels. As to the kind of experiment: Quantitative PCR of mRNA changes in the neural retina. In kind it is in vivo, C57BL/6J mice. Conditions: 1 week after injection. Here is the method: Quantitative PCR was used to evaluate mRNA changes in the neural retinas of mice fed with D-DHA or DHA for 4 weeks. Cell-type specific, iron regulating, antioxidant, and inflammation related genes were evaluated at 1 week after iron or saline injections. The mRNA levels of the rod-specific gene rhodopsin (Rho), cone-specific gene cone opsin1 medium wave sensitive and short wave sensitive (Opn1mw and Opn1sw) were measured to assess the stress and differentiation of rod and cone photoreceptors. […] In contrast, there was no change in these mRNAs in the neural retinas of D-DHA/IVT iron mice relative to IVT saline controls (FIG. 9). The mRNA levels of transferrin receptor (Tfrc) which are inversely related to intracellular iron levels, can be used as an indicator of intracellular iron levels. […] These two groups had slightly different Tfrc levels, perhaps as a result of loss of some photoreceptors in the DHA/IVT iron group (FIG. 9). The mRNA levels of antioxidants solute carrier family 7 member 11 (SLC7A11), glutathione peroxidase 4 (GPX4), glutathione S-transferase isoform m1(GSTm1), glutathione synthesis (GSS), catalase (Cat), heme oxygenase 1 (Hmox1), and superoxide dismutase 1 (Sod1) were measured to investigate oxidative stress. […] The mRNA levels of IL1β, IL6 and cluster of differentiation 68 (Cd68) were detected to investigate the retinal inflammation. […] The mRNA levels of Glutathione-synthase (GSS) and IL6 were not increased by IVT iron in mice on either diet (FIG. 9).
Neural retina tissues were isolated as previously described (e.g., M Hadziahmetovic et al. Age-dependent retinal iron accumulation and degeneration in hepcidin knockout mice. Investigative ophthalmology & visual science. Jan. 5, 2011;52(1):109-18).Gene expression changes in the neural retina and purified RPE cells were evaluated. Gapdh was used as an endogenous control. […]

With `[2H]C([2H])(/C=C\CC)/C=C\C([2H])([2H])/C=C\C([2H])([2H])/C=C\C([2H])([2H])/C=C\C([2H])([2H])/C=C\CCC(=O)OCC` [D-DHA, 6,6,9,9,12,12,15,15,18,18-D10-(4Z,7Z,10Z,13Z,16Z, 19Z)-docosa 4,7,10,13,16, 19-hexaenoic acid ethyl ester], the “upregulation of antioxidants mRNA (Slc7a11, Gpx4, GSTm1, Cat, Hmox1, Sod1)” value (D-DHA/IVT iron eyes) is on record as “prevented”. Besides, where the note is “D-DHA/IVT iron relative to IVT saline controls”, the “mRNA levels of Rho, Opn1sw (photoreceptor genes)” value is reported as “no change”. Moreover, the “mRNA levels of IL1β and Cd68” value (D-DHA/IVT iron retinas) is “not increased”.
